Results published in a melting point compilation (Tetko et al.).

| SMILES | melting point [°C] |
| --- | --- |
| COc1ccc(C2(C)CCc3oc4ccc(Cl)cc4c3-c3oc(C)cc32)cc1 (stereo unspecified) | 144 |
| O=S1(=O)OC2(c3ccccc31)c1ccc(O)c(O)c1Oc1c2ccc(O)c1O | 300 |
| NC(=O)C1CCN(CCCN2c3ccccc3Sc3ccc(Cl)cc32)CC1 | 139 |
| c1ccc(Sc2ccc3ccccc3n2)cc1 | 48 |
| CCOC(=O)Nc1ccccc1 | 47 to 51 |
| O=C(OCCOCCOC(=O)c1ccccc1)c1ccccc1 | 33.5 |
| O=Cc1ccccc1CN1CCOCC1 | 67 to 68 |
| CC12CCC3c4ccc(OC(=O)c5ccccc5)cc4CCC3C1CCC2O (stereo unspecified) | 196 |
| CC12CCC3C(CCC4CC(C#N)CCC43C)C1CCC2=O (stereo unspecified) | 164 |
| NC(=S)c1cccnc1 | 185 to 190 |
| FC(F)(F)C(F)(F)C(F)(F)C(F)(F)C(F)(F)C(F)(F)C(F)(F)C(F)(F)CCI | 82.5 |
| Cc1cc(-c2cc(C)c(N)c(C)c2)cc(C)c1N | 170 |
| CCOC(=O)c1c(C)c(C(C)=O)c(C)n1C | 61 to 62 |
| COC(=O)CCC(C)C1CCC2C3C(OC(C)=O)CC4CC(OC(C)=O)CCC4(C)C3CCC12C (stereo unspecified) | 185 to 186 |
| COc1ccccc1-c1nnc2n1NC(c1ccccc1)S2 (stereo unspecified) | 208 |
| CCOC(=O)c1c(C)nc2sc3c(c2c1N)CCCC3 | 135 to 136 |
| CCOC(=O)c1[nH]c(C)c(C=O)c1C | 145 to 146 |
| Nc1ncnc2c1ncn2C1OC(COP(=O)(O)OP(=O)(O)OP(=O)(O)O)C(O)C1O (stereo unspecified) | 176 |
| Nc1ncnc2c1ncn2CCCNC(=O)c1cc([N+](=O)[O-])cc([N+](=O)[O-])c1 | 234 |
| CCOC(=O)C1=C(C)NC(=O)NC1C (stereo unspecified) | 189 to 190 |
| c1ccc(CC(c2ccccc2)c2ccccc2)cc1 | 52 |

| SMILES | melting point [°C] |
| --- | --- |
| Cc1ccc(C(c2ccc(C)o2)c2ccccc2N=C=S)o1 | 65 |
| C#CCC1(OC(N)=O)CCCCC1 | 99 |
| Cc1ccccc1NC(=S)Nc1ccccc1C | 158 |
| c1ccc2cc(P(c3ccc4ccccc4c3)c3ccc4ccccc4c3)ccc2c1 | 228 |
| CON(C)C(=O)Nc1ccc(Br)cc1 | 95 |
| Oc1c(O)c(Br)c(Br)c(Br)c1Br | 191 |
| Cc1ccc(S(=O)(=O)OC2CCC3C4CCC5CC(=O)CCC5(C)C4CCC23C)cc1 (stereo unspecified) | 179 to 180 |
| COc1ccccc1OP(=O)(Oc1ccccc1OC)Oc1ccccc1OC | 91 |
| c1cnc2c(c1)ccc1ncccc12 | 79 |
| CCCCCCCCCCCCCCCC(=O)Oc1ccc([N+](=O)[O-])cc1 | 66 |
| CC(C(=O)O)=C(c1ccccc1)c1ccccc1 | 163 |
| c1ccc(CCCc2ccccc2)cc1 | 6 |
| CC(C)c1ncc[nH]1 | 129 |
| NC(=O)C1CCN(C(=O)OCc2ccccc2)CC1 | 130 to 132 |
| Cc1cc(CO)n[nH]1 | 78 to 80 |
| COc1ccc(CCCO)cc1 | 26 |
| CCOC(=O)C1CCN(c2ccc(C#N)cc2)CC1 | 67 to 68 |
| COc1ccc(/C=C(\Oc2ccccc2)c2nc3ccccc3s2)cc1 | 151 |
| CCCCCCCCCCCC1=C(O)C(=O)C=C(O)C1=O | 142 |
| COC1C(O)C(C)OC(OC2CCC3(C)C(CCC4C3CCC3(C)C(C5=CC(=O)OC5)CCC43O)C2)C1O (stereo unspecified) | 221 |
| c1ccc2c(c1)Nc1ccccc1O2 | 156 |

| SMILES | melting point [°C] |
| --- | --- |
| Cc1c(C)c(C)c(Br)c(Br)c1C | 72 |
| N#Cc1c(-c2ccccc2)c2c(=O)[nH]n(-c3ccccc3)c2[nH]c1=S | 142 |
| c1cnc(-c2noc(C3CCNCC3)n2)cn1 | 87 to 89 |
| NNc1c2ccccc2nc2ccccc12 | 177 |
| COc1ccc(-c2nnc3n2NC(c2ccccc2)S3)cc1 (stereo unspecified) | 134 |
| CC(=NO)c1ccco1 | 104 to 105 |
| CCCCC(O)(Cn1cncn1)c1ccc(Cl)cc1Cl (stereo unspecified) | 111 |
| CCc1nc(C)c(C=O)[nH]1 | 104 to 105 |
| N#Cc1ccc(C(Cl)C(Cl)c2ccc(C(Cl)C(Cl)c3ccc(C#N)cc3[N+](=O)[O-])cc2)c([N+](=O)[O-])c1 (stereo unspecified) | 278 |
| CNC(C)C(O)c1ccc(O)cc1 (stereo unspecified) | 153 |
| Brc1sc(-c2ccccc2)nc1-c1ccccc1 | 88 to 89 |
| c1ccc2c(c1)ccc1[nH]c3ccc4ccccc4c3c12 | 158 |
| COc1cc2c(cc1OC)OC(C)(C)C=C2 | 46 |
| Cc1c2ccccc2c(C)c2ccccc12 | 183 |
| C#CC1(O)CCC2C3CCC4=Cc5oncc5CC4(C)C3CCC21C (stereo unspecified) | 235 |
| Nc1ccc(-n2cccn2)cc1 | 54 to 55 |
| COc1ccc(C=CC(=O)c2cccc(C(=O)C=Cc3ccc(OC)c(O)c3)c2)cc1O | > 200 |
| CCN(CC)C(C)O (stereo unspecified) | -70 |
| CCOC(=O)C1=NN(c2ccc(Cl)cc2Cl)C(=O)C1C(Cl)C1(Cl)C(=O)N(c2ccc(Cl)cc2Cl)N=C1C(=O)OCC (stereo unspecified) | 99 |

Continued, values first:

| melting point [°C] | SMILES |
| --- | --- |
| 167 to 168 | O=C(C=Cc1ccc(Br)cc1)c1ccc(Cl)cc1 |
| 68 to 69 | Cc1nc(-c2ccc(C(F)(F)F)cc2)sc1Br |
| 226 | Cn1ncc2c(NNC3=CC(=O)c4ccccc4C3=O)ncnc21 |
| 208 | CCCSc1ccc2[nH]c(NC(=O)OC)nc2c1 |
| 90 to 96 | CCOC(=O)c1cc2cccc([N+](=O)[O-])c2[nH]1 |
| 74 | O=Cc1ccc2oc3ccccc3c2c1 |
| 246 | NC1C2CN(c3nc4c(cc3F)c(=O)c(C(=O)O)cn4-c3ccc(F)cc3F)CC12 (stereo unspecified) |
| 130 | Cc1cc(C(F)(F)F)cc(=O)[nH]1 |
| 21 | Nc1ccc(F)c(F)c1 |
| 30 to 33 | CNc1ccccc1OC |
| 39 | Cc1ccc(F)cc1N |
| 73 to 74 | N#Cc1cc([N+](=O)[O-])ccc1F |
| 245 to 247 | O=C(O)c1cncc(C#Cc2ccccc2)c1 |
| 77 | Oc1ccc(-c2ccccc2)cc1Cl |
| 93 | COc1ccc2c(c1)C(C(=O)O)C2 (stereo unspecified) |
| 109 | O=C(O)COc1c(F)c(F)c(F)c(F)c1F |
| 150 to 151 | NC(=NO)c1ccc2ccccc2c1 |
| 173 to 175 | O=C(Cl)c1cc2c(Cl)cc(Cl)cc2[nH]1 |
| 132 to 135 | Nc1cccc(Oc2ccc(S(=O)(=O)c3ccc(Oc4cccc(N)c4)cc3)cc2)c1 |
| 32 | CCC(=O)c1ccc(F)c(C(F)(F)F)c1 |

| melting point [°C] | SMILES |
| --- | --- |
| 50 | O=S(=O)(Cl)c1ccc(F)cc1C(F)(F)F |
| 36 | COc1ccc(OC)c(N=C=S)c1 |
| 109 to 111 | O=Cc1csc2ccc(Cl)cc12 |
| 171 to 175 | O=C(O)c1cccc(F)c1C(=O)O |
| 141 | Cc1ccc(OCC(=O)O)c(C)c1 |
| 223 | N#Cc1cccc(C(N)=O)c1 |
| 82 to 86 | Cn1c(=O)oc2ccccc21 |
| 170 | CCC(C(=O)O)c1ccccc1C(=O)O (stereo unspecified) |
| 93 to 94 | Cc1ccc2cc(CBr)ccc2n1 |
| 61 to 63 | Cc1onc(-c2ccccc2)c1CBr |
| 244 | O=C(O)c1cccc(C(=O)O)c1O |
| 125 to 128 | O=C(O)C1COc2ccccc2O1 (stereo unspecified) |
| 76 | Cc1cccc(N2CC(CO)OC2=O)c1 (stereo unspecified) |
| 136 | CC(C)(C)c1cnc(C(=O)Nc2cc(C(F)(F)F)cc(C(F)(F)F)c2)cn1 |
| 196 | O=[N+]([O-])c1ccc(ON=Cc2cc(Br)c(O)c(Br)c2)c([N+](=O)[O-])c1 |
| 68 to 70 | ClCc1cccc(-c2ncccn2)c1 |
| 204 | CC(C)(C)N(NC(=O)c1ccccc1)C(=O)c1cccc(C(F)(F)F)c1 |
| 168 to 172 | O=C(Cl)N1c2ccccc2Sc2ccccc21 |
| 126 to 128 | CCOC(=O)CC1Sc2ccccc2NC1=O (stereo unspecified) |
| 120 to 126 | N#Cc1cc(Cl)cc(Cl)c1N |

| melting point [°C] | SMILES |
| --- | --- |
| 62 to 66 | OCCN1CCN(c2ncc(C(F)(F)F)cc2Cl)CC1 |
| 170 | Cc1nc2n(c(=O)c1CCN1CCC(c3noc4cc(F)ccc34)CC1)CCCC2 |
| 139 | O=C(COc1ccc(Cl)cc1)Nc1nc2ccccc2s1 |
| 37 | O=S(=O)(Cl)c1ccc(C(F)(F)F)cc1Cl |
| 202 to 205 | NC(CS(=O)(=O)c1ccc(Cl)cc1)=NO |
| 154 | O=c1oc2ccccc2cc1O |
| 134 | CC(C)(C)N(NC(=O)c1ccccc1)C(=O)c1ccc(Cl)cc1Cl |
| 177 to 179 | CSc1nc2nc(SC)n(C)c2c(=O)n1-c1ccc(F)cc1 |
| 52 to 56 | CC(=O)OCc1ccc(C=O)o1 |
| 104 | O=C(O)Cc1ccc(F)cc1Cl |
| 61 | CC(C)C(OC(=O)c1cccnc1)c1ccc(Cl)cc1 (stereo unspecified) |
| 44 | C=Cc1ccc(I)cc1 |
| 107 to 109 | BrCc1ccc(-c2ccsc2)cc1 |
| 280 to 289 | Oc1cc(C(F)(F)F)nc2ccc(Cl)cc12 |
| 170 to 172 | Nc1cccc(F)c1C(=O)O |
| 158 | CC(C)(C)N(NC(=O)c1ccccc1)C(=O)c1cc(F)c(F)c(F)c1F |
| 51 | COc1cc(CCN(Cc2cccc(O)c2)C(=O)C(F)(F)F)ccc1O |
| 198 | N#Cc1c(F)c(F)c(C#N)c(F)c1F |
| 65 | Oc1ccc(C2CCCC2)cc1 |
| 65 to 66 | O=C(c1ccc(Cl)cc1)C(Br)c1ccccc1 (stereo unspecified) |
